The results in this text go back to PubChem BioAssay (NCI).

The structures appear in SMILES notation. “And” between values parts separate entries of the source, which are not always exact repeats. Equal entries are not always repeated.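 Test compounds were applied to cells in 96-well plates for 48 hours at 5 doses. GI50 marks 50% less growth. TGI: concentration producing complete growth inhibition.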

Test systems include MDA-MB-435; DMS 273 small cell lung; DLD-1 colon; DU-145 prostate; HS 578T breast; PC-3 prostate; SNB-78 CNS; DMS 114 small cell lung; M19-MEL melanoma; MDA-MB-231 breast.
Holding throughout (experiment): NCI-60 cell line screen, 48 h

In the case of `N=c1nc(N)c2cc3c(N)nc(=N)c3cc12`, the TGI in the test on MDA-MB-435, in the test on DMS 273 small cell lung, in the test with DLD-1 colon, in the test with DU-145 prostate, with HS 578T breast and with PC-3 prostate was above 100 µM each time. Besides, the TGI is 48.5 µM in the test on SNB-78 CNS, 23.8 µM with DMS 114 small cell lung, 5.45 µM in the test on M19-MEL melanoma and 8.09 µM in the test with MDA-MB-231 breast.

Consider `C=C(C)C(=O)NC(N)=NC#N`, for which the TGI with MDA-MB-435 was determined as 259 µM; in the test on DMS 273 small cell lung, 270 µM; with DLD-1 colon, 261 µM; in the test on DU-145 prostate it was 291 µM; with HS 578T breast, 797 µM; in the test with PC-3 prostate, 293 µM. Further, the TGI in the test with SNB-78 CNS is 398 µM; in the test on DMS 114 small cell lung, > 82.7 µM and 136 µM; in the test with M19-MEL melanoma, 50.2 µM and 166 µM; with MDA-MB-231 breast it was 301 µM. The GI50 in the test on DMS 273 small cell lung was 130 µM; with DLD-1 colon, 111 µM; in the test with DU-145 prostate it was 145 µM; with SNB-78 CNS, 167 µM; in the test on M19-MEL melanoma it was 42.8 µM; in the test with MDA-MB-231 breast, 161 µM.

On to `COc1cc(C(=O)C/C(CCC(=O)Nc2ccccc2[N+](=O)[O-])=N\NC(=O)C(N)=O)ccc1O`, for which the TGI in the test with DMS 273 small cell lung, in the test on DLD-1 colon, in the test on SNB-78 CNS, in the test on DMS 114 small cell lung and with M19-MEL melanoma was above 100 µM each time.

Take `CC1=CC2=C(OCO1)C(=O)c1ccccc1C2=O`: the TGI in the test with MDA-MB-435 is 2.77 µM; with DMS 273 small cell lung, 26.7 µM; in the test with DLD-1 colon, 81.9 µM; in the test with DU-145 prostate, 3.67 µM; with HS 578T breast, 4.25 µM; in the test on PC-3 prostate it was above 100 µM. The TGI with SNB-78 CNS was above 100 µM; in the test with DMS 114 small cell lung it was 12.1 µM; in the test on M19-MEL melanoma it was 3.58 µM; in the test on MDA-MB-231 breast, 22.4 µM.

Take `OCCN1CCN(CCO)Cc2ccccc2OCCOc2ccccc2C1`: the TGI in the test with DMS 273 small cell lung, with DLD-1 colon, with SNB-78 CNS, in the test on DMS 114 small cell lung and with M19-MEL melanoma was above 100 µM in each case.

In the case of `C[C@]12CCC3c4ccc(OC(=O)c5ccccc5)cc4CC[C@H]3C1CC[C@@H]2OC(=O)C12OC1CCC2=O` (stereo partly specified), the TGI with DMS 273 small cell lung came out at 9.52 µM; in the test with DLD-1 colon it was 6.37 µM; in the test on SNB-78 CNS, 14.1 µM; in the test on DMS 114 small cell lung it was 6.7 µM; in the test with M19-MEL melanoma it was 11.3 µM.

`C/C(=N\O)c1sc(-n2nc(-c3ccccc3)cc2-c2ccccc2)nc1C`: the TGI is 49.6 µM in the test on DMS 273 small cell lung; 20.1 µM with DLD-1 colon; above 100 µM in the test on SNB-78 CNS; 22.8 µM with DMS 114 small cell lung; 20.8 µM with M19-MEL melanoma.

As for `O=C1c2ccccc2C(=O)N1/N=C\c1ccc(Br)cc1`, the GI50 with DMS 273 small cell lung, in the test on DLD-1 colon, with SNB-78 CNS, in the test with DMS 114 small cell lung and in the test on M19-MEL melanoma was above 100 µM each time. In addition, the TGI in the test on DMS 273 small cell lung, in the test with DLD-1 colon, in the test with SNB-78 CNS, in the test with DMS 114 small cell lung and in the test on M19-MEL melanoma was above 100 µM throughout.

On to `CCCC(OCC)(OCC)OCC`, for which the TGI in the test on DMS 273 small cell lung, in the test with DLD-1 colon, in the test with SNB-78 CNS, in the test with DMS 114 small cell lung and with M19-MEL melanoma was above 100 µM each time.
